Measured values as given in patent US20120270864A1, “2-QUINOLINONE AND 2-QUINOXALINONE-DERIVATIVES AND THEIR USE AS ANTIBACTERIAL AGENTS” (ASTRAZENECA AB, priority 2006, published 2012).

tested on: Staphylococcus aureus (Sau) 516 cells; assay: Bacterial Susceptibility Testing Methods 2 (microbroth dilution, growth inhibition); type: cell-based; conditions: Staphylococcus aureus, Tested Concentration 4 μg/mL; Staphylococcus aureus 516 cell growth
Description: Compounds may be tested for antimicrobial activity by susceptibility testing using microbroth dilution methods recommended by CSLI. Compounds may be dissolved in dimethylsulfoxide and tested in 10 doubling dilutions in the susceptibility assays such that the final dimethylsulfoxide concentration in the assay is 2% (v/v). The Staphylococcus aureus (Sau) 516 cells used in the assay may be grown overnight on appropriate agar media and then suspended in the NCCLS-recommended liquid susceptibility-testing media. […] Plates may be incubated under appropriate conditions of atmosphere and temperature and for times according to NCCLS standard methods prior to being read. As used in Table 1 below, the term “inhibition” refers to the percentage of Staphylococcus aureus 516 cell growth that is suppressed (compared to an untreated sample) by the compound of the indicated example number. When tested in the above in-vitro assay, the compounds and salts of the example numbers listed below were tested at the indicated concentrations, providing the indicated inhibitions. In most instances, the highest concentrations at which the compounds were tested was 8 μg/mL. In some instances, however, compounds were tested at concentrations higher than 8 μg/mL, typically when the concentration was first measured in μM and was subsequently converted to μg/mL. In those cases in which compounds were tested at more than one concentration higher than 8 μg/mL, the concentration closest to 8 μg/mL is provided below.

SMILES	inhibition at 4 µg/mL [%]
CO[C@H]1CN(CCn2c(=O)ccc3ccc(C#N)cc32)CC[C@@H]1NCc1cc2c(cn1)OCCO2 [Example 43, 1-(2-{(3S,4S)-4-[(2,3-Dihydro[1,4]dioxino[2,3-c]pyridin-7-ylmethyl)amino]-3-methoxypiperidin-1-yl}ethyl)-2-oxo-1,2-dihydroquinoline-7-carbonitrile]	100

same assay, conditions: Staphylococcus aureus, Tested Concentration 8 μg/mL; Staphylococcus aureus 516 cell growth suppressed compared to untreated sample

SMILES	inhibition at 8 µg/mL [%]
COc1ccc2ncc(=O)n(CCN3CC[C@H](NCc4cc5c(cn4)OCCO5)[C@H](OC)C3)c2c1 [Example 16, 1-(2-{(3R,4S)-4-[(2,3-Dihydro[1,4]dioxino[2,3-c]pyridin-7-ylmethyl)amino]-3-methoxypiperidin-1-yl}ethyl)-7-methoxyquinoxalin-2(1H)-one]	97
COc1ccc2ncc(=O)n(CCN3CC[C@H](NCc4ccc5c(n4)NC(=O)CO5)[C@H](OC)C3)c2c1 [Example 17, 6-[({(3R,4S)-3-Methoxy-1-[2-(7-methoxy-2-oxoquinoxalin-1(2H)-yl)ethyl]piperidin-4-yl}amino)methyl]-2H-pyrido[3,2-b][1,4]oxazin-3(4H)-one]	99
CO[C@H]1CN(CCn2c(=O)ccc3ccc(C#N)cc32)CC[C@H]1NCc1cc2c(cn1)OCCO2 [Example 19, 1-(2-{(3S,4R)-4-[(2,3-Dihydro[1,4]dioxino[2,3-c]pyridin-7-ylmethyl)amino]-3-methoxypiperidin-1-yl}ethyl)-2-oxo-1,2-dihydro quinoline-7-carbonitrile]	100
CO[C@H]1CN(CCn2c(=O)ccc3ccc(C#N)cc32)CC[C@H]1NCc1ccc2c(n1)NC(=O)CO2 [Example 20, 1-[2-((3S,4R)-3-M ethoxy-4-{[(3-oxo-3,4-dihydro-2H-pyrido[3,2-b][1,4]oxazin-6-yl)methyl]amino}piperidin-1-yl)ethyl]-2-oxo-1,2-dihydro quino line-7-carbonitrile]	100
CO[C@H]1CN(CCn2c(=O)ccc3ccc(C#N)cc32)CC[C@H]1NCc1ccc2c(n1)NC(=O)CS2 [Example 21, 1-[2-((3S,4R)-3-M ethoxy-4-{[(3-oxo-3,4-dihydro-2H-pyrido[3,2-b][1,4]thiazin-6-yl)methyl]amino}piperidin-1-yl)ethyl]-2-oxo-1,2-dihydro quino line-7-carbonitrile]	100
CO[C@@H]1CN(CCn2c(=O)ccc3ccc(C#N)cc32)CC[C@@H]1NCc1cc2c(cn1)OCCO2 [Example 22, 1-(2-{(3R,4S)-4-[(2,3-Dihydro[1,4]dioxino[2,3-c]pyridin-7-ylmethyl)amino]-3-methoxypiperidin-1-yl}ethyl)-2-oxo-1,2-dihydroquinoline-7-carbonitrile]	100
CO[C@@H]1CN(CCn2c(=O)ccc3ccc(C#N)cc32)CC[C@@H]1NCc1ccc2c(n1)NC(=O)CO2 [Example 23, 1-[2-((3R,4S)-3-M ethoxy-4-{[(3-oxo-3,4-dihydro-2H-pyrido[3,2-b][1,4]oxazin-6-yl)methyl]amino}piperidin-1-yl)ethyl]-2-oxo-1,2-dihydro quino line-7-carbonitrile]	100
CO[C@@H]1CN(CCn2c(=O)ccc3ccc(C#N)cc32)CC[C@@H]1NCc1ccc2c(n1)NC(=O)CS2 [Example 24, 1-[2-((3R,4S)-3-Methoxy-4-{[(3-oxo-3,4-dihydro-2H-pyrido[3,2-b][1,4]thiazin-6-yl)methyl]amino}piperidin-1-yl)ethyl]-2-oxo-1,2-dihydro quino line-7-carbonitrile]	100
COc1ccc2ncc(=O)n(CCN3CC[C@H](NCc4cc5c(cn4)OCCO5)[C@@H](OC)C3)c2c1 [Example 25, 1-(2-{(3S,4S)-4-[(2,3-Dihydro[1,4]dioxino[2,3-c]pyridin-7-ylmethyl)amino]-3-methoxypiperidin-1-yl}ethyl)-7-methoxyquinoxalin-2(1H)-one]	98
COc1ccc2ncc(=O)n(CCN3CC[C@H](NCc4ccc5c(n4)NC(=O)CO5)[C@@H](OC)C3)c2c1 [Example 26, 6-[({(3S,4S)-3-Methoxy-1-[2-(7-methoxy-2-oxoquinoxalin-1(2H)-yl)ethyl]piperidin-4-yl}amino)methyl]-2H-pyrido[3,2-b][1,4]oxazin-3(4H)-one]	98
COc1ccc2ncc(=O)n(CCN3CC[C@@H](NCc4cc5c(cn4)OCCO5)[C@H](OC)C3)c2c1 [Example 27, 1-(2-{(3R,4R)-4-[(2,3-Dihydro[1,4]dioxino[2,3-c]pyridin-7-ylmethyl)amino]-3-methoxypiperidin-1-yl}ethyl)-7-methoxyquinoxalin-2(1H)-one]	87
COc1ccc2ncc(=O)n(CCN3CC[C@@H](NCc4ccc5c(n4)NC(=O)CO5)[C@H](OC)C3)c2c1 [Example 28, 6-[({(3R,4R)-3-Methoxy-1-[2-(7-methoxy-2-oxoquinoxalin-1(2H)-yl)ethyl]piperidin-4-yl}amino)methyl]-2H-pyrido[3,2-b][1,4]oxazin-3(4H)-one]	98
CO[C@@H]1CN(CCn2c(=O)ccc3ccc(C#N)cc32)CC[C@H]1NCc1ccc2c(n1)NC(=O)CO2 [Example 42, 1-[2-((3R,4R)-3-methoxy-4-{[(3-oxo-3,4-dihydro-2H-pyrido[3,2-b][1,4]oxazin-6-yl)methyl]amino}piperidin-1-yl)ethyl]-2-oxo-1,2-dihydroquinoline-7-carbonitrile]	100
CO[C@H]1CN(CCn2c(=O)ccc3ccc(C#N)cc32)CC[C@@H]1NCc1cc2c(cn1)OCCO2 [Example 43, 1-(2-{(3S,4S)-4-[(2,3-Dihydro[1,4]dioxino[2,3-c]pyridin-7-ylmethyl)amino]-3-methoxypiperidin-1-yl}ethyl)-2-oxo-1,2-dihydroquinoline-7-carbonitrile]	12
CO[C@H]1CN(CCn2c(=O)ccc3ccc(C#N)cc32)CC[C@@H]1NCc1ccc2c(n1)NC(=O)CO2 [Example 44, 1-[2-((3S,4S)-3-Methoxy-4-{[(3-oxo-3,4-dihydro-2H-pyrido[3,2-b][1,4]oxazin-6-yl)methyl]amino}piperidin-1-yl)ethyl]-2-oxo-1,2-dihydroquinoline-7-carbonitrile]	100
COc1ccc2ncc(=O)n(CCN3CC[C@@H](NCc4ccc5c(n4)NC(=O)CO5)[C@@H](F)C3)c2c1 [Example 45, 6-[({(3S,4R)-3-Fluoro-1-[2-(7-methoxy-2-oxoquinoxalin-1(2H)-yl)ethyl]piperidin-4-yl}amino)methyl]-2H-pyrido[3,2-b][1,4]oxazin-3(4H)-one]	97
COc1ccc2ncc(=O)n(CCN3CC[C@H](NCc4ccc5c(n4)NC(=O)CO5)[C@H](F)C3)c2c1 [Example 46, 6-[({(3R,4S)-3-Fluoro-1-[2-(7-methoxy-2-oxoquinoxalin-1(2H)-yl)ethyl]piperidin-4-yl}amino)methyl]-2H-pyrido[3,2-b][1,4]oxazin-3 (4H)-one]	100
CO[C@@H]1CN(CCn2c(=O)cc(C)c3ccc(C#N)cc32)CC[C@@H]1NCc1ccc2c(n1)NC(=O)CO2 [Example 47, 1-[2-((3R,4S)-3-M ethoxy-4-{[(3-oxo-3,4-dihydro-2H-pyrido[3,2-b][1,4]oxazin-6-yl)methyl]amino}piperidin-1-yl)ethyl]-4-methyl-2-oxo-1,2-dihydroquinoline-7-carbonitrile]	100

same assay, conditions: Staphylococcus aureus, Tested Concentration 9 μg/mL; Staphylococcus aureus 516 cell growth

SMILES	inhibition at 9 µg/mL [%]
CO[C@H]1CN(CCn2c(=O)cc(C)c3ccc(C#N)cc32)CC[C@H]1NCc1ccc2c(n1)NC(=O)CO2 [Example 51, 1-[2-((3S,4R)-3-Methoxy-4-{[(3-oxo-3,4-dihydro-2H-pyrido[3,2-b][1,4]oxazin-6-yl)methyl]amino}piperidin-1-yl)ethyl]-4-methyl-2-oxo-1,2-dihydro quino line-7-carbonitrile]	100

same assay, conditions: Staphylococcus aureus, Tested Concentration 13 μg/mL; Staphylococcus aureus 516 cell growth

SMILES	inhibition at 13 µg/mL [%]
N#Cc1ccc2ccc(=O)n(CCN3CC[C@H](NCc4ccc5c(n4)NC(=O)CO5)[C@H](F)C3)c2c1 [Example 52, 1-[2-((3R,4S)-3-fluoro-4-{[(3-oxo-3,4-dihydro-2H-pyrido[3,2-b][1,4]oxazin-6-yl)methyl]amino}piperidin-1-yl)ethyl]-2-oxo-1,2-dihydroquinoline-7-carbonitrile]	100

same assay, conditions: Staphylococcus aureus, Tested Concentration 14 μg/mL; Staphylococcus aureus 516 cell growth

SMILES	inhibition at 14 µg/mL [%]
N#Cc1ccc2ccc(=O)n(CCN3CC[C@@H](NCc4ccc5c(n4)NC(=O)CO5)[C@@H](F)C3)c2c1 [Example 50, 1-[2-((3S,4R)-3-Fluoro-4-{[(3-oxo-3,4-dihydro-2H-pyrido[3,2-b][1,4]oxazin-6-yl)methyl]amino}piperidin-1-yl)ethyl]-2-oxo-1,2-dihydro quino line-7-carbonitrile]	100

same assay, conditions: Tested Concentration 8 μg/mL; Staphylococcus aureus 516 cell growth suppressed compared to untreated sample

SMILES	Inhibition (%)
COc1ccc2ncc(=O)n(CCN3CC[C@H](NCc4ccc5c(n4)NC(=O)CS5)[C@H](OC)C3)c2c1 [Example 18]	95
CO[C@@H]1CN(CCn2c(=O)ccc3ccc(C#N)cc32)CC[C@H]1NCc1cc2c(cn1)OCCO2 [Example 41, 1-(2-{(3R,4R)-4-[(2,3-dihydro[1-yl]dioxino[2,3-c]pyridin-7-ylmethyl)amino]-3-methoxypiperidin-1-yl}ethyl)-2-oxo-1,2-dihydro quinoline-7-carbonitrile]	100

same assay, conditions: Tested Concentration 12 μg/mL; Staphylococcus aureus 516 cell growth

SMILES	Inhibition (%)
N#Cc1ccc2ccc(=O)n(CCN3CCC(NCc4ccc5c(n4)NC(=O)CO5)C(F)C3)c2c1 (stereo not shown) [Example 34]	91
